Experimental data taken from patent US20080226596A1, “Therapeutic compositions and methods useful in treating hepatitis” (priority 2006, published 2008).

Assays:
[1] = test system: NB4 cells; test: NB4 cell cycle analysis; type: cell-based, human; settings: 3 days; sodium stibogluconate 250 μg/ml, ATRA 1 μM
Description: The cell cycle was analyzed by flow cytometry after 3 days of culture of NB4 cells in the absence or presence of sodium stibogluconate (250 µg/ml) or ATRA (1 μM). Briefly, the cells were fixed in cold ethanol and incubated for 30 minutes at 4° C. in the dark with a solution of 50 […], 1 mg/ml RNase and 0.1% NP-40. Analysis was performed immediately after staining using the CELLFIT program (Becton Dickinson, Mountain View, Calif.).

[2] = test system: U266 cells; test: U266 multiple myeloma cell growth, MTT assay; type: cell-based, human; settings: day six cultures
Description: For cell proliferation assays, cells were grown in 10% FCS culture medium containing various amounts of IFNs and/or sodium stibogluconate in 96 well plates and cultured at 37° C. for 3 or 6 days as indicated. The numbers of viable cells in proliferation assays were determined by MTT assays as described in Phatak et al., J. Immunol. 167, 3391 (2001).

[3] = Toxicity/tolerance of sodium stibogluconate in nude mice; type: in vivo
Description: The dosage of sodium stibogluconate corresponds to approximately 440 mg Sb/kg body weight (average mouse body weight 27 g), substantially higher than the standard therapeutic dose of 20 mg Sb/kg and the high dose (143 mg Sb/kg) that was clinically used by accident without serious toxicity. This dose of sodium stibogluconate was based on a previous observation in a pilot study that mice could tolerate daily dose of 20 mg Sb (approximately 700-800 mg Sb/kg). […] In light of the relatively rapid rate of clearance of the drug in vivo, 440 mg Sb/kg dosage was used to ensure the detection of the effectiveness of the drug for this initial study.
As discussed above, the dosage of sodium stibogluconate used for the treatment of nude mice was 12 mg Sb/mouse, s.c., daily (or approximately 440 mg/kg body weight). This dosage is much higher than the standard dose for leishmaniasis (20 mg Sb/kg, daily). As an initial step to assess the toxicity of such a high dosage of sodium stibogluconate in nude mice, the effect of sodium stibogluconate on the viability and body weights of WM9 xenografts nude mice during the 25 day period of the study was determined.

[4] = test system: Renca tumor-infiltrating immune cells; test: Renca tumor-infiltrating immune cells, immunohistochemistry; parameters: species or system Balb/c mice; settings: mouse, in vivo
Description: Major internal organs and Renca tumors harvested from mice were fixed in 10% formalin or snap frozen in liquid nitrogen. H & E-stained tissue sections of the fixed samples were prepared and evaluated by microscopy as described previously (Yi, T., M. K. Pathak, D. J. Lindner, M. E. Ketterer, C. Farver, and E. C. Borden. 2002. Anticancer activity of sodium stibogluconate in synergy with IFNs. J Immunol 169:5978). Preparation of frozen tissue sections and immunohistochemistry were performed following established procedures (Joliat, M. J., P. A. Lang, B. L. Lyons, L. Burzenski, M. A. Lynes, T. Yi, J. P. Sundberg, and L. D. Shultz. 2002. Absence of CD5 dramatically reduces progression of pulmonary inflammatory lesions in SHP-1 protein-tyrosine phosphatase-deficient ‘viable motheaten’ mice. J Autoimmun 18:105). The antibodies used for immunohistochemistry were anti-CD4 (rat mAb, clone GK1.5, BD Biosciences, Franklin Lakes, N.J.), anti-CD8 (rat mAb, clone 53-6.7.5, BD Biosciences, Franklin Lakes, N.J.), anti-F4/80 (rat mAb, clone A3-1, Serotec, Oxford, UK) and anti-Asialo GM1 (rabbit polyclonal, Cedarlane, Hornby, Canada). […] Tissue sections of 2 mice/group were evaluated. The number of immune cells was semi-quantified based on the following scheme: […], 0-1 positive cells/40×field; +, 2-5 positive cells/40×field; ++, 6-10 positive cells/40×field, etc.

[5] = test system: U251 cells; test: U251 glioma cell growth, MTT assay; type: cell-based, human; settings: 100 μg/ml, day 6
Description: NIH3T3 (Yi, et al., Blood 85, 87 (1995)), WM9 (Forsberg, et al., Proc. Nat. Acad Sci. USA 90, 393 (1993)), DU145 (Mickey, et al., Cancer Res. 37, 4049 (1977)), LoVo (Drewinko, et al., Cancer Res. 36, 467 (1976)), HEY (Buick, et al., Cancer Res. 45, 3668 (1985)), U251 (Yoshida, et al., Cancer 50, 410 (1982)), A549 (Giard, et al., J. Natl. Cancer Inst. 51, 1417 (1973)) and SK-N-SH (Helson, et al., Cancer Res. 35, 2594 (1975)) cell lines have been described and were cultured in RPMI 1640 supplemented with 10% fetal calf serum (FCS). For measurement of sodium stibogluconate effects on cell growth in vitro, cells were cultured in the absence (−) or presence (+) of various amounts of sodium stibogluconate for 6 days with viable cells quantified by MTT assays (Mosmann, J. Immunol. Methods 65, 55 (1983)). Percentages of growth inhibition by sodium stibogluconate were calculated (.+−.x

O.O.O.O.O.O.O.O.O.O=C([O-])[C@@H]1[O][Sb]2([O-])([O][Sb]34([OH])[O][C@H]([C@H](O)CO)[C@H]([O]3)[C@H](C(=O)[O-])[O]4)[O][C@H]([C@H](O)CO)[C@@H]1[O]2.[Na+].[Na+].[Na+] [sodium stibogluconate]
NB4 cell cycle effect [1]: significant increase of cells at S phase
growth inhibition of U266 cells [2]: substantial growth inhibition activity
tolerability ([3]; 12 mg Sb daily (440 mg Sb/kg daily)): well tolerated with no serious side effects
tolerated daily dose in mice ([3]; pilot study): 20 mg Sb
tolerated daily dose in mice per body weight ([3]; pilot study): 700-800 mg Sb/kg
internal organs on dissection ([3]; two mice from each group): no apparent abnormality of the internal organs
survival of WM9-inoculated nude mice ([3]; until day 25, 4 mice/group): survived
numbers of tumor-infiltrating T cells or NK cells [4]: little effect
killing of U251 cells [5]: near-complete cell killing
